Assay results published in patent US12558342B2, “2-[2-({12,12-dimethyl-4-oxo-6-phenyl-3,11-dioxatricyclo[8.4.0.0,2,7]tetradeca-1,5,7,9-tetraen-8-yl}oxy)acetamido]benzamide and derivatives as inhibitor of clock:bmal1 interaction for the treatment of circadian rhythm diseases and disorders” (KOC UNIVERSITESI, priority 2019, dated 2026).
Changes are numbered by the printed parent chain.

Legend:
Type in all cases: binding
CLOCK-F80A-K220A = target: T1, CLOCK-F80A-K220A (Homo sapiens, UniProt O15516, F80A/K220A); experiment: Pull-down assay with biotinylated CLK8, HEK 293T cells overexpressing CLOCK-F80A-K220A and BMAL1
T1 construct: expressed in transfected cells; host or cells: HEK 293T
T1 sequence (O15516 1-846 F80A/K220A): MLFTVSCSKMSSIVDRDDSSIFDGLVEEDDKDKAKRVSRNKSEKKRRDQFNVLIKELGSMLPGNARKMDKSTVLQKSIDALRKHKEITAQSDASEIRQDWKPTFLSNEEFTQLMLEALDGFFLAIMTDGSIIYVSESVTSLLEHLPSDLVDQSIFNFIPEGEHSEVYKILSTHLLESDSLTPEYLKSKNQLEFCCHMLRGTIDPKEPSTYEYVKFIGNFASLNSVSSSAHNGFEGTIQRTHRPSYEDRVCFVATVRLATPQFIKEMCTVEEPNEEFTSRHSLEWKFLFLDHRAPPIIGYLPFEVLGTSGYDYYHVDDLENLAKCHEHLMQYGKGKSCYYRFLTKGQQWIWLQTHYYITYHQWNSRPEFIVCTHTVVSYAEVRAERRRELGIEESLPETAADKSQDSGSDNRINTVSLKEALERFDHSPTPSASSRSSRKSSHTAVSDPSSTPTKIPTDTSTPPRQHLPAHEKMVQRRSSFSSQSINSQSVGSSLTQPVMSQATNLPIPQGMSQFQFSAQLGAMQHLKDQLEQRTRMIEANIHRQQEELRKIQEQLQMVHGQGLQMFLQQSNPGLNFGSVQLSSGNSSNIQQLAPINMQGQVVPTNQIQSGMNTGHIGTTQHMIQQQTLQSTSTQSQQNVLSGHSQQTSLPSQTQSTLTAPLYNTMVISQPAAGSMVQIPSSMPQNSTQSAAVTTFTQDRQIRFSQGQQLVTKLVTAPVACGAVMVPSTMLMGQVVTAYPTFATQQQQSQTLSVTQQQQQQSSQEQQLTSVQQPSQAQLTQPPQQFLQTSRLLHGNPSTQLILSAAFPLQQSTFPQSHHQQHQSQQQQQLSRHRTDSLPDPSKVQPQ
Experimental: HEK293T cells were transiently transfected with tag-free hsClock and mBmal1. After 48 hours of transfection, cells were harvested and whole cell lysate was prepared with ice-cold lysis buffer (50 mM Tris-HCl pH 7.4, 2 mM EDTA, 1 mM MgCl2, 0.2% NP-40, 1 mM sodium orthovanadate, 1 mM sodium fluoride and protease inhibitor cocktail) followed by centrifugation at 7000×g at 4° C. for 10 minutes. Lysate was diluted with ice-cold 2× binding buffer (100 mM Tris-HCl pH 7.4, 300 mM NaCl, 0.2% NP-40, 2 mM sodium orthovanadate, 2 mM sodium fluoride, and protease inhibitor cocktail) 27. The lysate was divided into three fractions to be treated with either DMSO, or 20 μM of bitoinylated-CLK8 (bait) with or without 200 μM CLK8 (competitor). The lysate-compound samples were incubated and mixed continuously at 4° C. for 1 hour. After equilibrating NeutroAvidin Agarose resin (Thermo Scientific) with lysis buffer, the lysate-compound mixture and NeutroAvidin Agarose resin were incubated and mixed continuously at 4° C. overnight. The beads were washed four times with 1× binding buffer. To elute the bound proteins Laemmli buffer was added and samples were heated at 95° C. for 7 minutes. The pull-down precipitates were subjected to SDS-PAGE and transferred to a PVDF membrane (Millipore). […]

NAV2 = target: T2, NAV2 (Homo sapiens, UniProt Q8IVL1); experiment: LC-MS/MS of pull-down precipitates, NAV2; settings: Competitor 0 μM
T2 construct: endogenous in cells; host or cells: HEK 293T
T2 sequence (Q8IVL1 whole entry): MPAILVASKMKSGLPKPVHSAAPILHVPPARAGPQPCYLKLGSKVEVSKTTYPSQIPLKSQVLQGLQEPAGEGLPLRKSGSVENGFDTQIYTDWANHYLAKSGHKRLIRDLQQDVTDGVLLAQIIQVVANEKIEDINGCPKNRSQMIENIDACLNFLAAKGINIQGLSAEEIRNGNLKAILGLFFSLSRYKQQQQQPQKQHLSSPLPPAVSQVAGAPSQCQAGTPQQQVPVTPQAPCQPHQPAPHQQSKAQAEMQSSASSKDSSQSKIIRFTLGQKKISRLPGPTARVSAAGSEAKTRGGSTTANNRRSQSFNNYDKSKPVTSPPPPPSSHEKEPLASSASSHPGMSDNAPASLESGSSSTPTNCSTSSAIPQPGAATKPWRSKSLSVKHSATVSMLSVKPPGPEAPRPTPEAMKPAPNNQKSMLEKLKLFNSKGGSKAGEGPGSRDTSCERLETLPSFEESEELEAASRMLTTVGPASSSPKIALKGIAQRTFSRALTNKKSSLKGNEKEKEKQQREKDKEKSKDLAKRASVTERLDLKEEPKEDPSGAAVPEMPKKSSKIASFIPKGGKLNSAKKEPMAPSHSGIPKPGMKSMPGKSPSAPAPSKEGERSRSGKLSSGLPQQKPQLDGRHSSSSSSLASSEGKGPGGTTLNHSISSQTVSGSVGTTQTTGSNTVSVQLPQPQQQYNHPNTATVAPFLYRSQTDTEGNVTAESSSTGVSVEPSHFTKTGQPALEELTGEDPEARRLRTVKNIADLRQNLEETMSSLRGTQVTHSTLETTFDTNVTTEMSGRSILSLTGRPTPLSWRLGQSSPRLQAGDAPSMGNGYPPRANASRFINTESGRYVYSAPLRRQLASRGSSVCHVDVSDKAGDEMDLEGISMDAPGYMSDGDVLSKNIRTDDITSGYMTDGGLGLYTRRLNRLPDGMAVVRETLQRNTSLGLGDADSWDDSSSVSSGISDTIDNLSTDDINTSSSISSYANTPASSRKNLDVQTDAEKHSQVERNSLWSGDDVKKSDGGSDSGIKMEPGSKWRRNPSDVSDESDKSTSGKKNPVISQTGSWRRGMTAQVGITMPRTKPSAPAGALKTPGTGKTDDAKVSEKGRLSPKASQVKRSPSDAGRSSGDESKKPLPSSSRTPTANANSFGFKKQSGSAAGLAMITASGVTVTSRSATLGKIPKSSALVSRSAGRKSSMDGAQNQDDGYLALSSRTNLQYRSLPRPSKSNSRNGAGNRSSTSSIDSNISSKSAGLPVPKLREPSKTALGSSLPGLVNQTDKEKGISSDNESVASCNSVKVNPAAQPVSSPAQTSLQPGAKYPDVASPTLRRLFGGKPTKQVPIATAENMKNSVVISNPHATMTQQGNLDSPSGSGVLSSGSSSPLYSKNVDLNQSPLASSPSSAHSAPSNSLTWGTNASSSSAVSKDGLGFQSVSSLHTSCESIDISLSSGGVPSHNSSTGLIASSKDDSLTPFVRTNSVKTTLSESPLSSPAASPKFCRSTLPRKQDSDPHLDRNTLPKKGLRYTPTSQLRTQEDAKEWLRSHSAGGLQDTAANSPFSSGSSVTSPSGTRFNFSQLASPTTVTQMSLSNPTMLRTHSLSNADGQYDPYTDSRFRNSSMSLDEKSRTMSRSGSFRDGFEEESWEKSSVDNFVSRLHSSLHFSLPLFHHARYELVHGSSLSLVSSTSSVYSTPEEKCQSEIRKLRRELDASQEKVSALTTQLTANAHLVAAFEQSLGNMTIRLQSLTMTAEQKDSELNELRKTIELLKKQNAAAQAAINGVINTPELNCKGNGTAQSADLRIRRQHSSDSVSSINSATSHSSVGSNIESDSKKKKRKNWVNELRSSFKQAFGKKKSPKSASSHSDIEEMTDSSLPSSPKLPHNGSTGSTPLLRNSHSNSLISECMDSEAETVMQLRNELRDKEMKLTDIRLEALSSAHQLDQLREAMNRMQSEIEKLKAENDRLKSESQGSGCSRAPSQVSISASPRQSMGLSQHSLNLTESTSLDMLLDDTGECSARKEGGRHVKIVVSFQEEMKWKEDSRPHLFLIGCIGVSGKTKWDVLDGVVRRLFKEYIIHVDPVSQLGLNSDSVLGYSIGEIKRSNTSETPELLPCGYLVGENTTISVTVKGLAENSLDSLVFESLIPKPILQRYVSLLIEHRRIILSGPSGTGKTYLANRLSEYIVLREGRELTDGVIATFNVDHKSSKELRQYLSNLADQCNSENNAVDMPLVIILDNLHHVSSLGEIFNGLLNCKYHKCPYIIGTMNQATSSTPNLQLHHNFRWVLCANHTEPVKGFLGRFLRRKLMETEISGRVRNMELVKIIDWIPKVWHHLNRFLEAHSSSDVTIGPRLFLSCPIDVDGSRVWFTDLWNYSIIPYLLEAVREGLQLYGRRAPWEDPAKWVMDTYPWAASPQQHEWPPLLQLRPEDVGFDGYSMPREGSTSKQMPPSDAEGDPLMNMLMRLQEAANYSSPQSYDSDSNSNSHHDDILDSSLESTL
Experimental: (§1) HEK293T cells were transiently transfected with tag-free hsClock and mBmal1. After 48 hours of transfection, cells were harvested and whole cell lysate was prepared with ice-cold lysis buffer (50 mM Tris-HCl pH 7.4, 2 mM EDTA, 1 mM MgCl2, 0.2% NP-40, 1 mM sodium orthovanadate, 1 mM sodium fluoride and protease inhibitor cocktail) followed by centrifugation at 7000×g at 4° C. for 10 minutes. Lysate was diluted with ice-cold 2× binding buffer (100 mM Tris-HCl pH 7.4, 300 mM NaCl, 0.2% NP-40, 2 mM sodium orthovanadate, 2 mM sodium fluoride, and protease inhibitor cocktail) 27. The lysate was divided into three fractions to be treated with either DMSO, or 20 μM of bitoinylated-CLK8 (bait) with or without 200 μM CLK8 (competitor). […]
(§2) The next step was to check for off-targets of CLK8. […] Since the amount of precipitated endogenous CLOCK was insufficient to be detected in LC-MS/MS, whole cell lysate of HEK 293T cells overexpressing CLOCK and BMAL1 were used for LC-MS/MS. We determined proteins that potentially bind to CLK8 by utilizing a minimum threshold for peptide spectrum matches and coverage equal to those of the main target, CLOCK. We also excluded proteins that have been detected in negative controls of the CRAPome database (32), assuming them as abundant sticky proteins. […] BMAL1 was detected in lower amounts when a competitor was present. […]

CLOCK = target: T3, CLOCK (Homo sapiens, UniProt O15516); experiment: LC-MS/MS of pull-down precipitates, CLOCK; set-up: expressed in transfected cells; host or cells: HEK293T
T3 sequence (O15516 1-846): T1 sequence (O15516 1-846 F80A/K220A) with A80F, A220K
Experimental: as §1, §2

precipitated mutant CLOCK in the presence of the competitor (CLOCK-F80A-K220A): did not disappear | Peptide spectrum matches, NAV2 (NAV2): 263 | Peptide spectrum matches, CLOCK (CLOCK; Competitor 0 μM): 42 | Peptide spectrum matches, CLOCK (CLOCK; Competitor 200 μM): not detected
SMILES: CC1(C)CCc2c(cc(OCC(=O)Nc3ccccc3C(N)=O)c3c(-c4ccccc4)cc(=O)oc23)O1 [CLK8, 2-[2-({12,12-dimethyl-4-oxo-6-phenyl-3,11-dioxatricyclo [8.4.0.0,2,7]tetradeca-1,5,7,9-tetraen-8-yl}oxy)acetamido] benzamide]
